From patent publication US10287255B2, “Compounds as histone deacetylase 6 inhibitors and pharmaceutical compositions comprising the same” (CHONG KUN DANG PHARMACEUTICAL CORP., priority 2014, dated 2019)

Key:
[1] = biological target: T1, human recombinant HDAC1 (Homo sapiens, UniProt Q13547); assay: HDAC1 enzyme activity inhibition assay (in vitro, fluorimetric); assay type: biochemical; conditions: human recombinant HDAC1, fluorimetric kit, 30° C. 60 minutes
T1 construct: purchased Enzo Life Science BML-SE456
T1 sequence (Q13547 whole entry): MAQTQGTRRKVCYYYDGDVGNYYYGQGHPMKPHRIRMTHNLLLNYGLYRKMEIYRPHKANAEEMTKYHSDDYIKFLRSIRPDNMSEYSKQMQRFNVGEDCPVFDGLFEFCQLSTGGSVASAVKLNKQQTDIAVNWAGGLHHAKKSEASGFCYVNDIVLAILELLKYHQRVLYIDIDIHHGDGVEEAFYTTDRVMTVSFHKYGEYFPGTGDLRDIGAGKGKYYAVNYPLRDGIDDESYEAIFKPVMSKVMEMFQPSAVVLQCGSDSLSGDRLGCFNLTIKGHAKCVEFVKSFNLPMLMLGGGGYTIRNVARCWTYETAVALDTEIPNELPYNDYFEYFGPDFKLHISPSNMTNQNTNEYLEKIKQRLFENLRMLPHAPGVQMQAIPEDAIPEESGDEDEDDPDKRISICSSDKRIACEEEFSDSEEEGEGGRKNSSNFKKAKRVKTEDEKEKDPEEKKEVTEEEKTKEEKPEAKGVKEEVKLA
How it was run: (§1)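 Human recombinant enzyme (0.3 μg for HDAC1) reacted with 10 μM Fluor de Lys-SIRT1 substrate and 5-fold compound dilutions at 30 °C for 60 min, then developer for 30 min. Fluorescence read at Ex 360/Em 460; IC50 calculated. HDAC6 run by the same protocol.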

[2] = biological target: T2, human recombinant HDAC6 (Homo sapiens, UniProt Q9UBN7); assay: HDAC6 enzyme activity inhibition assay (in vitro, fluorimetric); assay type: biochemical; conditions: for HDAC6 selectivity (fold): HDAC6 selectivity over HDAC1; for IC50: human recombinant HDAC6, fluorimetric kit, same protocol as HDAC1
T2 construct: purchased Calbiochem 382180
T2 sequence (Q9UBN7 1-1215): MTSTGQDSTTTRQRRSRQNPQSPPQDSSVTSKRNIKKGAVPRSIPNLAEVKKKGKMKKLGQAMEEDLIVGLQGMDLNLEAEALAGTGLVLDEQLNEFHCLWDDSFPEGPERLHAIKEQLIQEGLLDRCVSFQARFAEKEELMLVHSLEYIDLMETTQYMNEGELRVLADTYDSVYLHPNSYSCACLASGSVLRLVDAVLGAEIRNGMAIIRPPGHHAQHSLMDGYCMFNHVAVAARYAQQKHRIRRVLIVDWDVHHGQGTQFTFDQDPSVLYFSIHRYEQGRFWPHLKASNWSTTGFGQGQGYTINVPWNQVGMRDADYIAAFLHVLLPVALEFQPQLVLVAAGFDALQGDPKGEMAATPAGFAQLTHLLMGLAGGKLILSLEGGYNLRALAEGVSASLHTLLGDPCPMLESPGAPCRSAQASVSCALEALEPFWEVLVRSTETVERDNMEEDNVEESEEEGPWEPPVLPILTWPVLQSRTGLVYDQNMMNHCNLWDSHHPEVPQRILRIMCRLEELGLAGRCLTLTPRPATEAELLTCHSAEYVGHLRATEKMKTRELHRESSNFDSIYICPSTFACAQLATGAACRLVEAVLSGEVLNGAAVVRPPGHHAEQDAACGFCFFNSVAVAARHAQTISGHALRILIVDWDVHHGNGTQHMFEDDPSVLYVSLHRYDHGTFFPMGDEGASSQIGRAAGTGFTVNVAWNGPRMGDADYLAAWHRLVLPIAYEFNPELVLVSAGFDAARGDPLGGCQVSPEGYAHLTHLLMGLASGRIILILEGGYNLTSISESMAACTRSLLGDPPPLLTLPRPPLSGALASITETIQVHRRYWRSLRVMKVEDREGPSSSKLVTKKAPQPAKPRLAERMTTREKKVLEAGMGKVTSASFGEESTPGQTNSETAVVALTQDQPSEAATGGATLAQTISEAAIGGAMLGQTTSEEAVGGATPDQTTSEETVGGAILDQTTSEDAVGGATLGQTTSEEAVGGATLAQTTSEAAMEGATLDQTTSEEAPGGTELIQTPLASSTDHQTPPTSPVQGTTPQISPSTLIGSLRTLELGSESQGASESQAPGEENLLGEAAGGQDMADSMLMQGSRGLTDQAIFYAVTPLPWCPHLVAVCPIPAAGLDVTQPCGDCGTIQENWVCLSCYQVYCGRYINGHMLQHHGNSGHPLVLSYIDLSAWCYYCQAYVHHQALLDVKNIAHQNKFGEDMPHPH
How it was run: as §1

Row | SMILES | IC50 [1] [nM] | HDAC6 selectivity (fold) [2] [fold] | IC50 [2] [nM]
1 | C[C@@H]1CN(Cc2ccc(C(=O)NO)cc2)C[C@H](C)N1Cc1cccc(CN2CCN(C)CC2)c1 [Compound 428, 4-(((3R,5S)-3,5-dimethyl-4-(3-((4-methylpiperazin-1-yl)methyl)benzyl)piperazin-1-yl)methyl)-N-hydroxybenzamide] | 4700 | 41 | 117
2 | C[C@@H]1CN(CCc2ccc(C(=O)NO)cc2)C[C@H](C)N1Cc1ccccc1 [Compound 218, 4-(2-((3R,5S)-4-benzyl-3,5-dimethylpiperazin-1-yl)ethyl)-N-hydroxybenzamide] | 11100 | 15 | 749
3 | C[C@@H]1CN(Cc2ccc(C(=O)NO)cc2)C[C@H](C)N1Cc1ccc(CN2CCCCC2)cc1 [Compound 467, 4-(((3R,5S)-3,5-dimethyl-4-(4-(piperidin-1-ylmethyl)benzyl)piperazin-1-yl)methyl)-N-hydroxybenzamide] | > 10000 | >204 | 49
4 | C[C@@H]1CN(Cc2ccc(C(=O)NO)cc2)C[C@H](C)N1C(=O)c1cnccn1 [Compound 404, 4-(((3R,5S)-3,5-dimethyl-4-(pyrazine-2-carbonyl)piperazin-1-yl)methyl)-N-hydroxybenzamide] | 5500 | 30 | 182
5 | CCN1CCN(Cc2cccc(C(=O)N3[C@H](C)CN(Cc4ccc(C(=O)NO)cc4)C[C@@H]3C)c2)CC1 [Compound 433, 4-(((3R,5S)-4-(3-((4-ethylpiperazin-1-yl)methyl)benzoyl)-3,5-dimethylpiperazin-1-yl)methyl)-N-hydroxybenzamide] | 3500 | 71 | 49
6 | C[C@@H]1CN(Cc2ccc(/C=C/C(=O)NO)cc2)C[C@H](C)N1C(=O)c1ccco1 [Compound 322, (E)-3-(4-(((3R,5S)-4-(furan-2-carbonyl)-3,5-dimethylpiperazin-1-yl)methyl)phenyl)-N-hydroxyacrylamide] | 1100 | 6 | 175
7 | C[C@@H]1CN(Cc2ccc(C(=O)NO)cc2)C[C@H](C)N1Cc1cccc(-c2ccoc2)c1 [Compound 343, 4-(((3R,5S)-4-(3-(furan-3-yl)benzyl)-3,5-dimethylpiperazin-1-yl)methyl)-N-hydroxybenzamide] | 8800 | 328 | 27
8 | C[C@@H]1CN(Cc2ccc(C(=O)NO)cc2)C[C@H](C)N1Cc1cc(F)c(F)cc1F [Compound 213, 4-(((3R,5S)-3,5-dimethyl-4-(2,4,5-trifluorobenzyl)piperazin-1-yl)methyl)-N-hydroxybenzamide] | > 10000 | >29 | 349
9 | C[C@@H]1CN(Cc2ccc(C(=O)NO)cc2)C[C@H](C)N1Cc1ccco1 [Compound 145, 4-(((3R,5S)-4-(furan-2-ylmethyl)-3,5-dimethylpiperazin-1-yl)methyl)-N-hydroxybenzamide] | 17100 | 519 | 33
10 | CCN(CC)Cc1cccc(CN2C[C@@H](C)N(Cc3ccc(C(=O)NO)cc3)[C@@H](C)C2)c1 [Compound 478, 4-(((2S,6R)-4-(3-((diethylamino)methyl)benzyl)-2,6-dimethylpiperazin-1-yl)methyl)-N-hydroxybenzamide] | 6570 | 10 | 640
11 | CC(=O)N1CCN(Cc2cccc(C(=O)N3[C@H](C)CN(Cc4ccc(C(=O)NO)cc4)C[C@@H]3C)c2)CC1 [Compound 435, 4-(((3R,5S)-4-(3-((4-acetylpiperazin-1-yl)methyl)benzoyl)-3,5-dimethylpiperazin-1-yl)methyl)-N-hydroxybenzamide] | 5100 | 57 | 90
12 | C[C@@H]1CN(C(=O)NCc2cccc(F)c2)C[C@H](C)N1Cc1ccc(C(=O)NO)cc1 [Compound 231, (3R,5S)-N-(3-fluorobenzyl)-4-(4-(hydroxycarbamoyl)benzyl)-3,5-dimethylpiperazine-1-carboxamide] | 1500 | 2 | 763
13 | C[C@@H]1CN(Cc2ccc(C(=O)NO)cc2)C[C@H](C)N1Cc1cccc(-c2ccncc2)c1 [Compound 345, 4-(((3R,5S)-3,5-dimethyl-4-(3-(pyridin-4-yl)benzyl)piperazin-1-yl)methyl)-N-hydroxybenzamide] | 5500 | 341 | 16
14 | C[C@@H]1CN(Cc2ccc(C(=O)NO)cc2)C[C@H](C)N1C(=O)c1ccc(CN2CCN(C)CC2)cc1 [Compound 462, 4-(((3R,5S)-3,5-dimethyl-4-(4-((4-methylpiperazin-1-yl)methyl)benzoyl)piperazin-1-yl)methyl)-N-hydroxybenzamide] | 3200 | 12 | 264
15 | C[C@@H]1CN(Cc2ccc(C(=O)NO)cc2)C[C@H](C)N1C(=O)NCc1cccc(F)c1 [Compound 232, (2S,6R)-N-(3-fluorobenzyl)-4-(4-(hydroxycarbamoyl)benzyl)-2,6-dimethylpiperazine-1-carboxamide] | 7900 | 28 | 286
16 | C[C@@H]1CN(Cc2ccc(C(=O)NO)cc2)C[C@H](C)N1Cc1cccc(CN2CC(F)(F)C2)c1 [Compound 384, 4-(((3R,5S)-4-(3-((3,3-difluoroazetidin-1-yl)methyl)benzyl)-3,5-dimethylpiperazin-1-yl)methyl)-N-hydroxybenzamide] | > 10000 | >94 | 106
17 | CC(=O)N1CCN(Cc2ccc(CN3[C@H](C)CN(Cc4ccc(C(=O)NO)cc4)C[C@@H]3C)cc2)CC1 [Compound 486, 4-(((3R,5S)-4-(4-((4-acetylpiperazin-1-yl)methyl)benzyl)-3,5-dimethylpiperazin-1-yl)methyl)-N-hydroxybenzamide] | > 10000 | >79 | 126
18 | Cc1ccc(C(=O)N2[C@H](C)CN(Cc3ccc(C(=O)NO)cc3)C[C@@H]2C)cc1 [Compound 290, 4-(((3R,5S)-3,5-dimethyl-4-(4-methylbenzoyl)piperazin-1-yl)methyl)-N-hydroxybenzamide] | 3800 | 48 | 79
19 | C[C@@H]1CN(Cc2ccc(C(=O)NO)cc2)C[C@H](C)N1Cc1cccc(CN2CCN(CC(C)(C)F)CC2)c1 [Compound 387, 4-(((3R,5S)-4-(3-((4-(2-fluoro-2-methylpropyl)piperazin-1-yl)methyl)benzyl)-3,5-dimethylpiperazin-1-yl)methyl)-N-hydroxybenzamide] | > 10000 | >118 | 85
20 | C[C@@H]1CN(C(=O)c2cccc(-c3ccncc3)c2)C[C@H](C)N1Cc1ccc(C(=O)NO)cc1 [Compound 260, 4-(((2S,6R)-2,6-dimethyl-4-(3-(pyridin-4-yl)benzoyl)piperazin-1-yl)methyl)-N-hydroxybenzamide] | 1700 | 3 | 529
21 | CC(=O)N1[C@H](C)CN(Cc2ccc(C(=O)NO)cc2)C[C@@H]1C [Compound 082, 4-(((3R,5S)-4-acetyl-3,5-dimethylpiperazin-1-yl)methyl)-N-hydroxybenzamide] | 12500 | 369 | 34
22 | C[C@@H]1CN(Cc2ccc(C(=O)NO)cc2)C[C@H](C)N1C(=O)c1ccco1 [Compound 125, 4-(((3R,5S)-4-(furan-2-carbonyl)-3,5-dimethylpiperazin-1-yl)methyl)-N-hydroxybenzamide] | > 10000 | >3333 | 3
